From publication PMC3262907 (ACS Chemical Biology, 2011)

Legend:
Assay type in all cases: cell-based
HeLa S3 cells = test: Proliferation assay; details: Homo sapiens, HeLa S3, 96 h, read-out: Cell EC50 HeLa
HT29 cells = test: Proliferation assay; details: Homo sapiens, HT-29, 96 h, read-out: Cell EC50 HT29
HCT116 cells = test: Proliferation assay; details: Homo sapiens, HCT-116, 96 h, read-out: Cell EC50 HCT 116
[1] = tested on: monopolar spindle formation; test: Spindle morphology by indirect immunofluorescence; details: cells arrested in metaphase

| EC50 (HeLa S3 cells) | EC50 (HT29 cells) | EC50 (HCT116 cells) | Compound | concentration up to which no significant monopolarity resulted [1] |
| --- | --- | --- | --- | --- |
| 214 nM | 688 nM | 50.3 nM | O=C(O)c1ccc(Nc2ncc3c(n2)-c2ccc(Cl)cc2C(c2c(F)cccc2F)=NC3)cc1 [Compound 34, MLN8054] |  |
| 3.8 nM | 239 nM | 17.4 nM | CCN(CCCOc1ccc2c(Nc3cc(CC(=O)Nc4cccc(F)c4)n[nH]3)ncnc2c1)CCOP(=O)(O)O [Compound 33, AZD1152] | > 500 nM |
| 16.4 nM | 119 nM | 15.8 nM | Cc1cc(Nc2cc(N3CCN(C)CC3)nc(Sc3ccc(NC(=O)C4CC4)cc3)n2)[nH]n1 [Compound 32, VX680] |  |
